pEC50, pIC50: −log10 of the molar value.
How the values were obtained:
[1] = system: A549 cells; assay: A549 proliferation (viability) assay, Cell Titer Fluor, 72 hours; type: cell-based; settings: Homo sapiens
Summary of the method: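 Compound was added to A549 cells (1000/well, pre-grown 24 h in RPMI 1640 plus 10% dialyzed FBS) at 0.5% DMSO and left 72 h under 37 °C, 5% CO2, ambient O2. Live-cell fluorescence (Cell Titer Fluor) gave the EC50.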

[2] = target: T1, GLS1 (purified recombinant human GAC) (Homo sapiens, UniProt O94925); assay: GLS1 enzymatic activity assay (dual-coupled, Amplex UltraRed/resorufin); type: biochemical
T1 sequence (O94925 55-598 isoform O94925-3 limits assumed): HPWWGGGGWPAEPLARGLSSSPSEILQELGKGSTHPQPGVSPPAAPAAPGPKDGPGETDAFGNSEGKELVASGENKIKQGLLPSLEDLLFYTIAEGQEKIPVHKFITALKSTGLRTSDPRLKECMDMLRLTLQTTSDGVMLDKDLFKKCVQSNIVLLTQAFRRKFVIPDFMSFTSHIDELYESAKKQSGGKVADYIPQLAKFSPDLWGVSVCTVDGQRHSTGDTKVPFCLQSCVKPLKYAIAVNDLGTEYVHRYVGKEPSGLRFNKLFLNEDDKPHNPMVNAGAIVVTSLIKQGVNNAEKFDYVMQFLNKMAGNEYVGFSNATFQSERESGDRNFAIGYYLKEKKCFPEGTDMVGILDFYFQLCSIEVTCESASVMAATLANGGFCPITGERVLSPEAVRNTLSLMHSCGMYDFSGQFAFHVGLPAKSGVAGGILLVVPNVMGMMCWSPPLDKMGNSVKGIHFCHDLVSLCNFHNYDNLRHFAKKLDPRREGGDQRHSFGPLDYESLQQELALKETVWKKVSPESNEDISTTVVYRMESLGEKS
Summary of the method: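 Recombinant human GAC (2 nM) preincubated with 50 mM potassium phosphate, then inhibitor (10 min each, RT); 1 mM glutamine, pH 7.4 Hepes buffer, 1% DMSO. Glutamate coupled via glutamate oxidase/HRP to resorufin (Ex 530/Em 590), kinetic or 20-min endpoint; IC50 by four-parameter logistic fit.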

| pEC50 [1] | pIC50 [2] | SMILES |
| --- | --- | --- |
| > 7.00 | > 7.00 | CC1(C)CN(C(=O)C(=O)Nc2ccn(CCC(F)Cn3cc(C(=O)NCc4cccc(OC(F)(F)F)c4)nn3)c(=O)c2F)C1 (centres unmarked) [Example 428, 1-(4-{4-[2-(3,3-dimethylazetidin-1-yl)-2-oxoacetamido]-3-fluoro-2-oxo-1,2-dihydropyridin-1-yl}-2-fluorobutyl)-N-{[3-(trifluoromethoxy)phenyl]methyl}-1H-1,2,3-triazole-4-carboxamide] |
| 5.30 to 6.30 | 5.30 to 6.30 | CNC(=O)c1cn(CC(F)CCn2ccc(NC(=O)C(=O)N3CCCCC3)c(F)c2=O)nn1 (centres unmarked) [Example 429, 1-(2-fluoro-4-{3-fluoro-2-oxo-4-[2-oxo-2-(piperidin-1-yl)acetamido]-1,2-dihydropyridin-1-yl}butyl)-N-methyl-1H-1,2,3-triazole-4-carboxamide] |
| < 5.30 | 5.30 to 6.30 | Nc1ccn(CCC(F)Cn2cc(C(=O)NCc3cc(OC(F)(F)F)ccc3F)nn2)c(=O)c1F (centres unmarked) [Example 430, 1-[4-(4-amino-3-fluoro-2-oxo-1,2-dihydropyridin-1-yl)-2-fluorobutyl]-N-{[2-fluoro-5-(trifluoromethoxy)phenyl]methyl}-1H-1,2,3-triazole-4-carboxamide] |
| > 7.00 | > 7.00 | C[C@@H]1CCN(C(=O)C(=O)Nc2ccn(CCC(F)Cn3cc(C(=O)NCc4cc(OC(F)(F)F)ccc4F)nn3)c(=O)c2F)C1 (stereo partly drawn) [Example 431, 1-[2-fluoro-4-(3-fluoro-4-{2-[(3R)-3-methylpyrrolidin-1-yl]-2-oxoacetamido}-2-oxo-1,2-dihydropyridin-1-yl)butyl]-N-{[2-fluoro-5-(trifluoromethoxy)phenyl]methyl}-1H-1,2,3-triazole-4-carboxamide] |
| > 7.00 | > 7.00 | C[C@H]1CCN(C(=O)C(=O)Nc2ccn(CCC(F)Cn3cc(C(=O)NCc4cc(OC(F)(F)F)ccc4F)nn3)c(=O)c2F)C1 (stereo partly drawn) [Example 432, 1-[2-fluoro-4-(3-fluoro-4-{2-[(3S)-3-methylpyrrolidin-1-yl]-2-oxoacetamido}-2-oxo-1,2-dihydropyridin-1-yl)butyl]-N-{[2-fluoro-5-(trifluoromethoxy)phenyl]methyl}-1H-1,2,3-triazole-4-carboxamide] |
| 6.30 to 7.00 | > 7.00 | COC1CCCN(C(=O)C(=O)Nc2ccn(CCC(F)Cn3cc(C(=O)NCc4cc(OC(F)(F)F)ccc4F)nn3)c(=O)c2F)C1 (centres unmarked) [Example 433, 1-(2-fluoro-4-{3-fluoro-4-[2-(3-methoxypiperidin-1-yl)-2-oxoacetamido]-2-oxo-1,2-dihydropyridin-1-yl}butyl)-N-{[2-fluoro-5-(trifluoromethoxy)phenyl]methyl}-1H-1,2,3-triazole-4-carboxamide] |
| > 7.00 | > 7.00 | O=C(Nc1ccn(CCC(F)Cn2cc(C(=O)NCc3cc(OC(F)(F)F)ccc3F)nn2)c(=O)c1F)C(=O)N1CCC[C@@H](C(F)(F)F)C1 (stereo partly drawn) [Example 434, 1-[2-fluoro-4-(3-fluoro-2-oxo-4-{2-oxo-2-[(3R)-3-(trifluoromethyl)piperidin-1-yl]acetamido)-1,2-dihydropyridin-1-yl)butyl]-N-{[2-fluoro-5-(trifluoromethoxy)phenyl]methyl}-1H-1,2,3-triazole-4-carboxamide] |
| > 7.00 | > 7.00 | O=C(Cc1ccccc1)Nc1ccn(CCCCc2nnc(C(=O)NCc3cccc(OC(F)(F)F)c3)s2)c(=O)c1 [Example 438, 5-{4-[2-oxo-4-(2-phenylacetamido)-1,2-dihydropyridin-1-yl]butyl}-N-{[3-(trifluoromethoxy)phenyl]methyl}-1,3,4-thiadiazole-2-carboxamide] |
| > 7.00 | > 7.00 | O=C(Cc1cccc(OC(F)(F)F)c1)Nc1ccn(CCCCc2nnc(C(=O)NCc3cccc(OC(F)(F)F)c3)s2)c(=O)c1 [Example 439, 5-[4-(2-oxo-4-{2-[3-(trifluoromethoxy)phenyl]acetamido}-1,2-dihydropyridin-1-yl)butyl]-N-{[3-(trifluoromethoxy)phenyl]methyl}-1,3,4-thiadiazole-2-carboxamide] |
| > 7.00 | > 7.00 | O=C(CC1CCCCC1)Nc1ccn(CCCCc2nnc(C(=O)NCc3cccc(OC(F)(F)F)c3)s2)c(=O)c1 [Example 440, 5-{4-[4-(2-cyclohexylacetamido)-2-oxo-1,2-dihydropyridin-1-yl]butyl}-N-{[3-(trifluoromethoxy)phenyl]methyl]-1,3,4-thiadiazole-2-carboxamide] |
| 5.30 to 6.30 | > 7.00 | Cc1ccc(CNC(=O)c2nnc(CCCCn3ccc(NC(=O)Cc4ccccc4)cc3=O)s2)cn1 [Example 441, N-[(6-methylpyridin-3-yl)methyl]-5-{4-[2-oxo-4-(2-phenylacetamido)-1,2-dihydropyridin-1-yl]butyl}-1,3,4-thiadiazole-2-carboxamide] |
| > 7.00 | > 7.00 | Cc1ccc(CNC(=O)c2nnc(CCCCn3ccc(NC(=O)Cc4cccc(OC(F)(F)F)c4)cc3=O)s2)cn1 [Example 442, N-[(6-methylpyridin-3-yl)methyl]-5-[4-(2-oxo-4-{2-[3-(trifluoromethoxy)phenyl]acetamido}-1,2-dihydropyridin-1-yl)butyl]-1,3,4-thiadiazole-2-carboxamide] |
| > 7.00 | > 7.00 | Cc1ccc(CNC(=O)c2nnc(CCCCn3ccc(NC(=O)CC4CCCCC4)cc3=O)s2)cn1 [Example 443, 5-{4-[4-(2-cyclohexylacetamido)-2-oxo-1,2-dihydropyridin-1-yl]butyl}-N-[(6-methylpyridin-3-yl)methyl]-1,3,4-thiadiazole-2-carboxamide] |
| 5.30 to 6.30 | 6.30 to 7.00 | O=C(Cc1ccccc1)Nc1ccn(CCCCc2nnc(C(=O)NCc3ccccn3)s2)c(=O)c1 [Example 445, 5-{4-[2-oxo-4-(2-phenylacetamido)-1,2-dihydropyridin-1-yl]butyl}-N-(pyridin-2-ylmethyl)-1,3,4-thiadiazole-2-carboxamide] |
| 6.30 to 7.00 | > 7.00 | O=C(Cc1cccc(OC(F)(F)F)c1)Nc1ccn(CCCCc2nnc(C(=O)NCc3ccccn3)s2)c(=O)c1 [Example 446, 5-[4-(2-oxo-4-{2-[3-(trifluoromethoxy)phenyl]acetamido}-1,2-dihydropyridin-1-yl)butyl]-N-(pyridin-2-ylmethyl)-1,3,4-thiadiazole-2-carboxamide] |
| > 7.00 | > 7.00 | O=C(CC1CCCCC1)Nc1ccn(CCCCc2nnc(C(=O)NCc3ccccn3)s2)c(=O)c1 [Example 447, 5-{4-[4-(2-cyclohexylacetamido)-2-oxo-1,2-dihydropyridin-1-yl]butyl}-N-(pyridin-2-ylmethyl)-1,3,4-thiadiazole-2-carboxamide] |
| 5.30 to 6.30 | 6.30 to 7.00 | COCCNC(=O)c1nnc(CCCCn2ccc(NC(=O)Cc3cccc(OC(F)(F)F)c3)cc2=O)s1 [Example 450, N-(2-methoxyethyl)-5-[4-(2-oxo-4-{2-[3-(trifluoro-methoxy)phenyl]acetamido}-1,2-dihydropyridin-1-yl)butyl]-1,3,4-thiadiazole-2-carboxamide] |
| 6.30 to 7.00 | > 7.00 | COCCNC(=O)c1nnc(CCCCn2ccc(NC(=O)CC3CCCCC3)cc2=O)s1 [Example 451, 5-{4-[4-(2-cyclohexylacetamido)-2-oxo-1,2-dihydropyridin-1-yl]butyl)-N-(2-methoxyethyl)-1,3,4-thiadiazole-2-carboxamide] |
| 5.30 to 6.30 | 6.30 to 7.00 | O=C(Cc1ccccc1)Nc1ccn(CCCCc2nnc(C(=O)NCc3ncccc3F)s2)c(=O)c1 [Example 453, N-[(3-fluoropyridin-2-yl)methyl]-5-{4-[2-oxo-4-(2-phenylacetamido)-1,2-dihydropyridin-1-yl]butyl}-1,3,4-thiadiazole-2-carboxamide] |
| 6.30 to 7.00 | > 7.00 | O=C(Cc1cccc(OC(F)(F)F)c1)Nc1ccn(CCCCc2nnc(C(=O)NCc3ncccc3F)s2)c(=O)c1 [Example 454, N-[(3-fluoropyridin-2-yl)methyl]-5-[4-(2-oxo-4-{2-[3-(trifluoromethoxy)phenyl]acetamido}-1,2-dihydropyridin-1-yl)butyl]-1,3,4-thiadiazole-2-carboxamide] |
| > 7.00 | > 7.00 | O=C(CC1CCCCC1)Nc1ccn(CCCCc2nnc(C(=O)NCc3ncccc3F)s2)c(=O)c1 [Example 455, 5-{4-[4-(2-cyclohexylacetamido)-2-oxo-1,2-dihydropyridin-1-yl]butyl}-N-[(3-fluoropyridin-2-yl)methyl]-1,3,4-thiadiazole-2-carboxamide] |
| 6.30 to 7.00 | > 7.00 | O=C(Cc1ccccn1)Nc1ccn(CCCCc2nnc(C(=O)NCc3cccc(OC(F)(F)F)c3)s2)c(=O)c1 [Example 456, 5-(4-{2-oxo-4-[2-(pyridin-2-yl)acetamido]-1,2-dihydropyridin-1-yl}butyl)-N-{[3-(trifluoromethoxy)phenyl]methyl}-1,3,4-thiadiazole-2-carboxamide] |

— patent US20160002204A1 (Board of Regents, The University of Texas System, priority 2014, published 2016)
